Values after ≈ are worked out from the molar mass of the structure shown. Non-standard residues stand in square brackets, D forms with d. Residues, ends and D or L forms follow the SMILES beside them. hArg = N=C(N)NCCCC[C@H](N)C(=O)O; Ava = NCCCCC(=O)O
How the values were obtained:
[1] = system: C. albicans; settings: 24 h
[2] = system: C. glabrata; settings: 24 h
[3] = system: C. parapsilosis; settings: 24 h
[4] = system: C. krusei; settings: 24 h
[5] = system: C. auris; settings: 24 h
[6] = system: C. tropicalis; settings: 24 h
[7] = system: C. dubliniensis; settings: 24 h
[8] = system: C. neoformans; settings: 72 h
[9] = system: C. gattii; settings: 72 h
[10] = system: Scedosporium spp.; settings: 72 h
[11] = system: Lomentospora prolificans
[12] = system: Candida spp.

SMILES | MIC C. albicans [1] | MIC C. glabrata [2] | MIC C. parapsilosis [3] | MIC C. krusei [4] | MIC C. auris [5] | MIC C. tropicalis [6] | MIC C. dubliniensis [7] | MIC C. neoformans [8] | MIC C. gattii [9] | MIC Range Scedosporium spp. [10] | MIC Range Lomentospora prolificans [11] | Activity at 24 h MIC50 against Candida spp. ([12]; 24 h) | Activity at 24 h MIC90 against Candida spp. ([12]; 24 h) | Activity at 48 h MIC50 against Candida spp. ([12]; 48 h) | Activity at 48 h MIC90 against Candida spp. ([12]; 48 h)
N=C(N)NCCC[C@@H](N)C(=O)N[C@@H](CCCNC(=N)N)C(=O)NCCCCC(=O)N[C@H](CCCNC(=N)N)C(=O)N[C@@H](CCCNC(=N)N)C(=O)N[C@H](CCCNC(=N)N)C(=O)NCCCCC(=O)N[C@H](CCCNC(=N)N)C(=O)N[C@@H](CCCNC(=N)N)C(=O)N[C@H](CCCNC(=N)N)C(=O)NCCCCC(=O)N[C@H](CCCNC(=N)N)C(=O)N[C@@H](CCCNC(=N)N)C(N)=O [SEQ ID NO: 23, rR-(Ava)-rRr-(Ava)-rRr-(Ava)-rR-NH2] (H-[dR]R[Ava][dR]R[dR][Ava][dR]R[dR][Ava][dR]R-NH2) | 2 µg/mL (≈ 1.07 µM) | 4 µg/mL (≈ 2.13 µM) | 0.25 µg/mL (≈ 0.133 µM) | 4 µg/mL (≈ 2.13 µM) | >32 µg/mL | 1 µg/mL (≈ 0.533 µM) | 1 µg/mL (≈ 0.533 µM) | 8 µg/mL (≈ 4.26 µM) | 2 µg/mL (≈ 1.07 µM) | 16 to 32 µg/mL | >32 µg/mL |  |  |  | 
N=C(N)NCCC[C@@H](N)C(=O)N[C@@H](CCCNC(=N)N)C(=O)N[C@H](CCCNC(=N)N)C(=O)N[C@@H](CCCNC(=N)N)C(=O)N[C@H](CCCNC(=N)N)C(=O)N1CCC[C@H]1C(=O)N[C@H](CCCNC(=N)N)C(=O)N[C@@H](CCCNC(=N)N)C(=O)N[C@H](CCCNC(=N)N)C(=O)N[C@@H](CCCNC(=N)N)C(=O)N[C@H](CCCNC(=N)N)C(=O)N1CCC[C@H]1C(=O)N[C@H](CCCNC(=N)N)C(=O)N[C@@H](CCCNC(=N)N)C(=O)N[C@H](CCCNC(=N)N)C(=O)N[C@@H](CCCNC(=N)N)C(N)=O [SEQ ID NO: 61, rRrRr-P-rRrRr-P-rRrR-NH2] (H-[dR]R[dR]R[dR]P[dR]R[dR]R[dR]P[dR]R[dR]R-NH2) | 0.25 µg/mL (≈ 0.104 µM) | 0.5 µg/mL (≈ 0.209 µM) | 0.25 µg/mL (≈ 0.104 µM) | 0.5 µg/mL (≈ 0.209 µM) | 1 µg/mL (≈ 0.417 µM) | 0.25 µg/mL (≈ 0.104 µM) | 0.25 µg/mL (≈ 0.104 µM) |  |  |  |  | 0.5 µg/mL | 1 µg/mL | 0.5 µg/mL | 16 µg/mL
N=C(N)NCCC[C@@H](N)C(=O)N[C@@H](CCCNC(=N)N)C(=O)N[C@H](CCCNC(=N)N)C(=O)N1CCC[C@H]1C(=O)N[C@H](CCCNC(=N)N)C(=O)N[C@@H](CCCNC(=N)N)C(=O)N1CCC[C@H]1C(=O)N[C@H](CCCNC(=N)N)C(=O)N[C@@H](CCCNC(=N)N)C(=O)N[C@H](CCCNC(=N)N)C(=O)N1CCC[C@H]1C(=O)N[C@H](CCCNC(=N)N)C(=O)N[C@@H](CCCNC(=N)N)C(N)=O [SEQ ID NO: 68, rRr-P-rR-P-rRr-P-rR-NH2] (H-[dR]R[dR]P[dR]RP[dR]R[dR]P[dR]R-NH2) | 0.25 µg/mL (≈ 0.134 µM) | 2 µg/mL (≈ 1.07 µM) | 0.5 µg/mL (≈ 0.267 µM) | 2 µg/mL (≈ 1.07 µM) | >32 µg/mL | 1 µg/mL (≈ 0.535 µM) | 0.5 µg/mL (≈ 0.267 µM) | 8 µg/mL (≈ 4.28 µM) | 2 µg/mL (≈ 1.07 µM) | 8 µg/mL (≈ 4.28 µM) | >32 µg/mL |  |  |  | 
N=C(N)NCCC[C@@H](N)C(=O)N[C@@H](CCCNC(=N)N)C(=O)N[C@H](CCCNC(=N)N)C(=O)N1CCC[C@H]1C(=O)N[C@H](CCCNC(=N)N)C(=O)N[C@@H](CCCNC(=N)N)C(=O)N[C@H](CCCNC(=N)N)C(=O)N1CCC[C@H]1C(=O)N[C@H](CCCNC(=N)N)C(=O)N[C@@H](CCCNC(=N)N)C(=O)N1CCC[C@H]1C(=O)N[C@H](CCCNC(=N)N)C(=O)N[C@@H](CCCNC(=N)N)C(N)=O [SEQ ID NO: 69, rRr-P-rRr-P-rR-P-rR-NH2] (H-[dR]R[dR]P[dR]R[dR]P[dR]RP[dR]R-NH2) | 0.25 µg/mL (≈ 0.134 µM) | 2 µg/mL (≈ 1.07 µM) | 0.5 µg/mL (≈ 0.267 µM) | 1 µg/mL (≈ 0.535 µM) | >32 µg/mL | 0.5 µg/mL (≈ 0.267 µM) | 0.25 µg/mL (≈ 0.134 µM) | 8 µg/mL (≈ 4.28 µM) | 2 µg/mL (≈ 1.07 µM) | 8 to 16 µg/mL | 32 µg/mL (≈ 17.1 µM) |  |  |  | 
N=C(N)NCCCC[C@H](NC(=O)[C@@H](CCCNC(=N)N)NC(=O)[C@H](CCCCNC(=N)N)NC(=O)[C@@H](CCCNC(=N)N)NC(=O)CCCCNC(=O)[C@H](CCCCNC(=N)N)NC(=O)[C@@H](CCCNC(=N)N)NC(=O)[C@H](CCCCNC(=N)N)NC(=O)[C@@H](CCCNC(=N)N)NC(=O)CCCCNC(=O)[C@@H](CCCNC(=N)N)NC(=O)[C@H](CCCCNC(=N)N)NC(=O)[C@@H](CCCNC(=N)N)NC(=O)CCCCNC(=O)[C@@H](CCCNC(=N)N)NC(=O)[C@H](CCCCNC(=N)N)NC(=O)[C@H](N)CCCNC(=N)N)C(N)=O [SEQ ID NO: 89, r(Har)r-(Ava)-r(Har)r-(Ava)-r(Har)r(Har)-(Ava)-r(Har)r(Har)-NH2] (H-[dR][hArg][dR][Ava][dR][hArg][dR][Ava][dR][hArg][dR][hArg][Ava][dR][hArg][dR][hArg]-NH2) | 1 µg/mL (≈ 0.387 µM) | 1 µg/mL (≈ 0.387 µM) | 0.5 µg/mL (≈ 0.193 µM) | 1 µg/mL (≈ 0.387 µM) | 0.5 µg/mL (≈ 0.193 µM) | 1 µg/mL (≈ 0.387 µM) | 1 µg/mL (≈ 0.387 µM) | 0.25 µg/mL (≈ 0.0967 µM) | 0.25 µg/mL (≈ 0.0967 µM) |  |  |  |  |  | 

Second part, the compound after the results:

MIC C. albicans [1] | MIC C. glabrata [2] | MIC C. parapsilosis [3] | MIC C. krusei [4] | MIC C. auris [5] | MIC C. tropicalis [6] | MIC C. dubliniensis [7] | MIC C. neoformans [8] | MIC C. gattii [9] | MIC Range Scedosporium spp. [10] | MIC Range Lomentospora prolificans [11] | Activity at 24 h MIC50 against Candida spp. ([12]; 24 h) | Activity at 24 h MIC90 against Candida spp. ([12]; 24 h) | Activity at 48 h MIC50 against Candida spp. ([12]; 48 h) | Activity at 48 h MIC90 against Candida spp. ([12]; 48 h) | SMILES
2 µg/mL (≈ 1.07 µM) | 8 µg/mL (≈ 4.26 µM) | 0.25 µg/mL (≈ 0.133 µM) | 8 µg/mL (≈ 4.26 µM) | >32 µg/mL | 1 µg/mL (≈ 0.533 µM) | 1 µg/mL (≈ 0.533 µM) | 16 µg/mL (≈ 8.53 µM) | 4 µg/mL (≈ 2.13 µM) | 8 to 32 µg/mL | >32 µg/mL |  |  |  |  | N=C(N)NCCC[C@@H](N)C(=O)N[C@@H](CCCNC(=N)N)C(=O)N[C@H](CCCNC(=N)N)C(=O)NCCCCC(=O)N[C@H](CCCNC(=N)N)C(=O)N[C@@H](CCCNC(=N)N)C(=O)NCCCCC(=O)N[C@H](CCCNC(=N)N)C(=O)N[C@@H](CCCNC(=N)N)C(=O)N[C@H](CCCNC(=N)N)C(=O)NCCCCC(=O)N[C@H](CCCNC(=N)N)C(=O)N[C@@H](CCCNC(=N)N)C(N)=O [SEQ ID NO: 24, rRr-(Ava)-rR-(Ava)-rRr-(Ava)-rR-NH2] (H-[dR]R[dR][Ava][dR]R[Ava][dR]R[dR][Ava][dR]R-NH2)
4 µg/mL (≈ 2.13 µM) | 8 µg/mL (≈ 4.26 µM) | 0.5 µg/mL (≈ 0.266 µM) | 16 µg/mL (≈ 8.53 µM) | >32 µg/mL | 2 µg/mL (≈ 1.07 µM) | 2 µg/mL (≈ 1.07 µM) | 32 µg/mL (≈ 17.1 µM) | 4 µg/mL (≈ 2.13 µM) | 16 to 32 µg/mL | >32 µg/mL |  |  |  |  | N=C(N)NCCC[C@@H](N)C(=O)N[C@@H](CCCNC(=N)N)C(=O)NCCCCC(=O)N[C@H](CCCNC(=N)N)C(=O)N[C@@H](CCCNC(=N)N)C(=O)N[C@H](CCCNC(=N)N)C(=O)NCCCCC(=O)N[C@H](CCCNC(=N)N)C(=O)N[C@@H](CCCNC(=N)N)C(=O)NCCCCC(=O)N[C@H](CCCNC(=N)N)C(=O)N[C@@H](CCCNC(=N)N)C(=O)N[C@H](CCCNC(=N)N)C(N)=O [SEQ ID NO: 25, rR-(Ava)-rRr-(Ava)-rR-(Ava)-rRr-NH2] (H-[dR]R[Ava][dR]R[dR][Ava][dR]R[Ava][dR]R[dR]-NH2)
8 µg/mL (≈ 4.26 µM) | 8 µg/mL (≈ 4.26 µM) | 0.5 µg/mL (≈ 0.266 µM) | 8 µg/mL (≈ 4.26 µM) | >32 µg/mL | 2 µg/mL (≈ 1.07 µM) | 4 µg/mL (≈ 2.13 µM) | 16 µg/mL (≈ 8.53 µM) | 4 µg/mL (≈ 2.13 µM) | 16 to 32 µg/mL | 32 µg/mL (≈ 17.1 µM) |  |  |  |  | N=C(N)NCCC[C@@H](N)C(=O)N[C@@H](CCCNC(=N)N)C(=O)NCCCCC(=O)N[C@H](CCCNC(=N)N)C(=O)N[C@@H](CCCNC(=N)N)C(=O)NCCCCC(=O)N[C@H](CCCNC(=N)N)C(=O)N[C@@H](CCCNC(=N)N)C(=O)N[C@H](CCCNC(=N)N)C(=O)NCCCCC(=O)N[C@H](CCCNC(=N)N)C(=O)N[C@@H](CCCNC(=N)N)C(=O)N[C@H](CCCNC(=N)N)C(N)=O [SEQ ID NO: 26, rR-(Ava)-rR-(Ava)-rRr-(Ava)-rRr-NH2] (H-[dR]R[Ava][dR]R[Ava][dR]R[dR][Ava][dR]R[dR]-NH2)
2 µg/mL (≈ 1.07 µM) | 8 µg/mL (≈ 4.26 µM) | 0.25 µg/mL (≈ 0.133 µM) | 8 µg/mL (≈ 4.26 µM) | >32 µg/mL | 1 µg/mL (≈ 0.533 µM) | 1 µg/mL (≈ 0.533 µM) | 8 µg/mL (≈ 4.26 µM) | 2 µg/mL (≈ 1.07 µM) | 8 to 16 µg/mL | 32 µg/mL (≈ 17.1 µM) |  |  |  |  | N=C(N)NCCC[C@@H](N)C(=O)N[C@@H](CCCNC(=N)N)C(=O)N[C@H](CCCNC(=N)N)C(=O)NCCCCC(=O)N[C@H](CCCNC(=N)N)C(=O)N[C@@H](CCCNC(=N)N)C(=O)N[C@H](CCCNC(=N)N)C(=O)NCCCCC(=O)N[C@H](CCCNC(=N)N)C(=O)N[C@@H](CCCNC(=N)N)C(=O)NCCCCC(=O)N[C@H](CCCNC(=N)N)C(=O)N[C@@H](CCCNC(=N)N)C(N)=O [SEQ ID NO: 27, rRr-(Ava)-rRr-(Ava)-rR-(Ava)-rR-NH2] (H-[dR]R[dR][Ava][dR]R[dR][Ava][dR]R[Ava][dR]R-NH2)

Source: patent US20240360177A1, “PEPTIDES WITH ANTIMICROBIAL ACTIVITIES” (priority 2021, published 2024)
